# Data published in ChEMBL document CHEMBL3507680, “University of Dundee, Gates Library screen for HepG2 cell viability”.
# Experiment: Human HepG2 cell viability assay in 384 well format
# Format: toxicity, cell-based
# Set-up: dose 125 nL, time 70.5 hour; cytotoxicity at 70.5 h: concentration not given beside the values
# Settings: HepG2 cells, read-out: Inhibition
row,SMILES,cytotoxicity at 70.5 h [%]
1,CC(=O)N1CCCCC1c1nc(N)ncc1-c1ccccc1 (stereo not given),-24.9
2,O=C(c1ccncc1)N1CCC(c2nc(O)cc(-c3ccncc3)n2)C1 (stereo not given),-12.6
3,CC(=O)N1CCC(c2ccnc(Nc3cncnc3)n2)C1 (stereo not given),-32.6
4,CC(=O)N1CCCC1c1cccc(Cc2ccc(F)cc2)n1 (stereo not given),-14.3
5,CC(=O)N1CCC(C(=O)c2cc(C)cnc2N)CC1,-15.5
6,Cc1nc(Nc2ncccn2)cc(C2CCCN2CC(C)C)n1 (stereo not given),43.1
7,CN(C)C(=O)CN1CCCCC1c1nc(N)ncc1-c1ccccc1 (stereo not given),-17.6
8,CC(C)n1c(C2CCCN(Cc3ccnn3C)C2)nc2ccccc21 (stereo not given),-9.99
9,Cc1n[nH]cc1C(=O)N1CCCC(n2nnc3cc(F)ccc32)C1 (stereo not given),-12.2
10,Cn1cc(CN2CCc3nc(-c4ccccn4)nc(O)c3C2)cn1,22.4
11,CCn1ncc(CN2CCc3c(nc(-c4cccnc4)[nH]c3=O)C2)c1C,-18.3
12,Cc1nn(C)c(C)c1-c1cncc(C2CCN(S(C)(=O)=O)CC2)n1,-19.6
13,CC(=O)N1CCCC(c2cnc(-c3c(C)nn(C)c3C)cn2)C1 (stereo not given),-20.6
14,CC(C)n1cc(C(=O)N2Cc3ccccc3OC3(CCOCC3)C2)cn1,23.6
15,OC1(Cn2ccc3ccncc32)CCN(Cc2ccccn2)CC1,-2.48
16,O=C(c1cccnc1)N1CCCC(c2cc(C(F)F)n3ncnc3n2)C1 (stereo not given),-13.8
17,c1cnc(-c2cnc(N3CCSCC3)nc2C2CCCO2)cn1 (stereo not given),-16.8
18,Cc1ccc(S(=O)(=O)N2C[C@@H]3C[C@@H](NC(=O)C(C)(C)C)[C@@H]3C2)cc1,-16.5
19,O=C(c1cnco1)N1C[C@@H]2CC[C@H](Oc3cccc(F)c3)[C@@H]2C1,-3.26
20,Cc1ncc(CNC(=O)CCc2cccc(F)c2)c(C2CCCN2C)n1 (stereo not given),-2.51
21,O=C(Cc1ccc(F)cc1)N1CCCCC1c1ccn2ccnc2n1 (stereo not given),-12
22,Cc1nccc(C2CN(Cc3cc[nH]n3)CCO2)n1 (stereo not given),-15.2
23,CC(=O)N1CCN([C@@H]2CC[C@@H](NC(=O)c3cncc(C)c3)[C@H]2O)CC1,24

row,SMILES,cytotoxicity at 70.5 h [%]
1,CC(=O)N1CCCC1c1ccc(-c2c(C)noc2C)cn1 (stereo not given),-9.29
2,CNC(=O)CCc1cc(C)nc(C2CCCN2)n1 (stereo not given),-12.5
3,Cc1noc(C)c1-c1cccc(CC2CCN(C(=O)CCC(=O)O)C2)n1 (stereo not given),-11.7
4,CCn1cc(CN2CC3CCCN3C[C@H]2C)c(C)n1 (stereo not given in full),2.28
5,CNC(=O)C1(CCCc2cccnc2)CCCCN1 (stereo not given),-1.91
6,Cc1ccccc1-c1cncc(C2CCN(C(=O)CN(C)C)CC2)n1,23.3
7,COCC(=O)N1CCC(c2cccc(Cc3ccc(F)cc3)n2)CC1,-6.39
8,CN(CCOCC1CC1)C(=O)Nc1ccc(C#N)c(Cl)c1,-0.0375
9,COC(=O)c1ccc(CN2CCC(c3n[nH]c(C)n3)CC2)s1,-0.468
10,CC(C)(C)n1ncc(NCCc2ccccc2C(F)(F)F)c(Cl)c1=O,33
11,CCOCC(=O)Nc1cc(-c2cccc(F)c2F)n[nH]1,-7.88
12,CC(C)(C)n1ncc(NCC(O)c2ccc(F)c(F)c2)c(Cl)c1=O (stereo not given),-0.243
13,O=C1CC(C(=O)NCc2ccccc2Oc2ccccc2F)CCN1 (stereo not given),-1.83
14,CC(C)OCc1ccccc1CNC(=O)C(C)(C)C,0.195
15,CN(CCOCC1CC1)C(=O)Nc1ccc([S+](C)[O-])c(F)c1 (stereo not given),21.5
16,CN(CCOCC1CC1)C(=O)Nc1ccc([S+](C)[O-])cc1 (stereo not given),-0.588
17,COc1cccc(C(=O)NS(=O)(=O)c2cc(Cl)sc2Cl)c1OC(F)F,-7.95
18,N#CC1(NC(=O)COC(=O)Cc2cc(Cl)c3c(c2)OCCO3)CCCC1,16.4
19,CC(=O)Nc1ccc(CNCC(O)c2ccc(Cl)cc2)cc1 (stereo not given),-5.19
20,CC(=O)Nc1ccc(CNCC(O)c2ccc(C)cc2)cc1 (stereo not given),-8.81
21,CC(Nc1cccc(F)c1C#N)c1cccc(S(N)(=O)=O)c1 (stereo not given),-8.67
22,COCCCN1Cc2cccc(NC(=O)c3ccccc3Cl)c2C1,12.9
23,Cc1nc(C)c(C(C)NCc2c(C(C)C)nn(C)c2N(C)C)s1 (stereo not given),-0.665

row,SMILES,cytotoxicity at 70.5 h [%]
1,N#CC1(NC(=O)Cc2cc(Cl)c3c(c2)OCCO3)CCC1,-10.5
2,CN(Cc1ccccn1)C(=O)C(c1ccccc1)N1CCSCC1 (stereo not given),-7.59
3,COCCCOc1ccc(C(=O)N(C)Cc2cccc(O)c2)cn1,-8.37
4,COCCCN(C)c1cc(C(F)(F)F)nc(-c2cccnc2)n1,-5.74
5,COc1cccc(C2(C(=O)NC3CCc4nccn4C3)CCCC2)c1 (stereo not given),10.9
6,CN(Cc1cscn1)C(=O)C(c1ccccc1)N1CCSCC1 (stereo not given),21.5
7,NS(=O)(=O)CCCNC(=O)c1cnc(-c2ccsc2)s1,-6.58
8,CC(Nc1ccc(C#N)cc1F)c1cccc(S(N)(=O)=O)c1 (stereo not given),16.2
9,Cc1ccc(F)c(S(=O)(=O)NCCc2nnc[nH]2)c1,15.4
10,COc1cc(NC(=O)NCc2nccn2C)ccc1Br,-4.24
11,O=C(O)c1cc(/C=C/c2cccc3ccccc23)ncn1,-7.2
12,CC(O)CN(C)c1cc(C(F)(F)F)nc(-c2cccnc2)n1 (stereo not given),-3.49
13,CCN(CC)S(=O)(=O)c1ccc(CNC(=O)N2CCC(C#N)CC2)cc1,-6.61
14,Cc1cnn(CCNCc2c(C(C)C)nn(C)c2Cl)c1,-2.72
15,COc1ccc(C)cc1CN1CCn2cccc2C1C (stereo not given),-1.19
16,COc1c(CNC(C)c2sc(C)nc2C)c(C(C)C)nn1C (stereo not given),23.8
17,COc1ccc(C(C)CCNC2CCN(c3ccccn3)CC2)cc1 (stereo not given),22
18,COCC1CCCN(c2cncc(OCc3ccccc3)n2)C1 (stereo not given),6.39
19,Cc1cc(CNS(=O)(=O)CCCC#N)ccc1N(C)C,0.915
20,c1csc(N2CCN(c3ncnc4sccc34)CC2)n1,-7.71
21,COc1cc(C(=O)O)ccc1OCC(=O)NCCc1ccccc1,-2.71
22,CCCN(CC(=O)NC)C(=O)c1ccc(-c2nc(C)cs2)cc1,-10.1
23,CC(=O)N1CCC(NC(=O)CN2CCCc3c(F)ccc(C)c32)CC1,-4.42

row,SMILES,cytotoxicity at 70.5 h [%]
1,Cc1cc(C)n(C2CN(CCC(N)=O)C2)n1,0.833
2,COc1ccsc1C(=O)NC1CCN(c2cccc(F)c2)CC1,21.7
3,CCCn1cc(NC(=O)Nc2ccc(F)c(C(=O)NC)c2)cn1,-4.76
4,COc1ncnc(N)c1CNCCc1ccc(-n2cccn2)cc1,-1.5
5,NC(=O)CC1CCN(c2cncc(OCc3ccccc3)n2)CC1,-5.14
6,NC(=O)CC1CCCN(c2cncc(SCc3ccccc3)n2)C1 (stereo not given),-1.35
7,CN(C)c1nc(CNC(=O)Nc2cccc([S+](C)[O-])c2)cs1 (stereo not given),-5.56
8,CCN(CC(=O)N(C)C)C(=O)c1ccc(-c2nc(C)cs2)cc1,-4.36
9,CCc1nnc(C(C)N2CCN(CCC(=O)NC3CC3)CC2)o1 (stereo not given),22
10,Cc1c(C(=O)N2CCCN(S(C)(=O)=O)CC2)cnn1C,-3.33
11,FC(F)(F)c1csc(N2CCN(Cc3ccccn3)CC2)n1,-6.63
12,CC(O)CN1CCN(Cc2coc(-c3ccccc3)n2)CC1 (stereo not given),-7.79
13,CCN(CC(=O)NC(C)C)C(=O)c1csc(Cc2ccccc2)n1,-9.03
14,NC(=O)[C@@H]1Cc2ccccc2CN1CCC(=O)N1CCOCC1,-5.31
15,OC(CNCCn1cccn1)COc1cccc(C(F)(F)F)c1 (stereo not given),-1.44
16,OC(CNCCn1cccn1)COc1ccc2ccccc2c1 (stereo not given),-0.315
17,OC(CNCCn1cccn1)COc1ccc(F)cc1 (stereo not given),5.18
18,O=C(Cc1cccs1)NCC1(O)CCSC1 (stereo not given),-5.51
19,Cc1cccc(NC(=O)CN(C)C(=O)c2ccc(-n3cccc3)nc2)n1,-4.2
20,O=C(c1ccco1)N(CC(F)(F)F)C1CCCOC1 (stereo not given),-2.62
21,O=C(NC1CCC(O)CC1)c1cnc2c(cnn2C2CCCC2)c1 (stereo not given),-0.508
22,Cc1noc(C)c1CNc1cccc(C(=O)N(C)c2ccccc2)c1,14.2
23,COCC(C)NC(=O)CN1CCC2(CC1)OCCO2 (stereo not given),-3.81

row,SMILES,cytotoxicity at 70.5 h [%]
1,COC(=O)CN(CC1CCOC1)C1CC1 (stereo not given),-3.42
2,CCOC(=O)CCCN1CCCC(C(=O)Nc2ccc(Cl)cn2)C1 (stereo not given),15.1
3,CCC(C)NC(=O)CN1CCC2(CC1)OCCO2 (stereo not given),3.04
4,O=C(Nc1nccs1)C1CCCN1Cc1ccccn1 (stereo not given),-5.74
5,CC(C)(O)CN1CCN(C(=O)c2cccn2Cc2cccnc2)CC1,-8.17
6,Cc1nnc(NC(=O)NCC(C)N2CCOCC2)s1 (stereo not given),-11
7,CCCn1cc(NC(=O)c2ccc(NC(=O)NC3CC3)cc2)ccc1=O,-10.8
8,CC(=O)Nc1ccc(CNCc2ccc(CS(C)(=O)=O)cc2)cc1,15.3
9,O=C(c1sccc1C1CC1)N1CCN(c2ncccn2)CC1,-0.605
10,CCCn1cc(NC(=O)c2ccncc2)ccc1=O,-8.23
11,CNCC(=O)N1CC(c2cc(Nc3ncccn3)nc(C)n2)C1,-20.3
12,c1cnc2c(c1)cc([C@H]1CCCO1)n2CCN1CCCCC1,20.3
13,OC1(Cn2ccc3ncccc32)CCN(Cc2ccccn2)CC1,24.4
14,COc1ccccc1C(=O)N1Cc2cc(C)ccc2OCC1CN(C)C (stereo not given),-8.39
15,OC1CCN(Cc2c(C3CCCNC3)[nH]c3ncccc23)CC1 (stereo not given),-22.4
16,CC(C)C(=O)N1CCCC(c2cc(C(F)F)n3ncnc3n2)C1 (stereo not given),23.9
17,c1cnc2c(c1)cc([C@H]1CCCO1)n2CCN1CCOCC1,-27.8
18,COc1ccc(CN(Cc2cncn2C)CC2CCCO2)c(OC)c1 (stereo not given),4.29
19,Cc1cc(C[C@@H]2CCC[C@H]2NCc2cc(C)c(O)c(C)c2)on1,2.36
20,CCc1ccc(CN(CCCn2ccnc2)Cc2ccc(C)s2)o1,21.1
21,Cc1cccc(CN(Cc2ccc(C)o2)C2CC(C)(C)NC(C)(C)C2)n1,-9.61
22,Cc1ccc([C@]2(O)CC[C@H]3CN(Cc4cc(C)c(O)c(C)c4)C[C@H]32)nc1,30.6
23,O[C@]1(c2ccccn2)CC[C@@H]2CN(Cc3cccc4ncccc34)C[C@@H]21,15.3
